Test results from US7588788B2, “Immune modulation and anti-allergy activities of Zingiber zerumbet” (Wholesome Life Science Co., Ltd., priority 2004, dated 2009).

Experiments:
Th1/Th2 immune responses = experiment: Active compound identification by in vitro bioactive screening of purification fractions; format: cell-based; settings: compound identified from active fractions
[1] = tested on: Rat Basophilic Leukemia-1 (RBL-1) cell, LTC4 secretion; experiment: LTC4 released by A23187 stimulated leukemia cells (ELISA); format: cell-based; settings: compound identified from the most active fraction
Method: Cell culture and drug treatment: Rat Basophilic Leukemia-1 (RBL-1) was purchased from Food Industry Research and Development Institute (CCRC 60198, ATCC CRL-1378), and cultured in MEM-alpha medium (Gibco, 12000). All trans-retinoic acid (1 μg/ml) was added to a 3.5 cm diameter well (6-well plate) at 2×10^6 cells/2 ml/well. Plates were then incubated at 37° C. with 5% CO2 in air for 16 hr. Various volumes of ZZ samples were added to the wells to make the appropriate final concentrations (0, 0.5, 5, 50 μg/ml) and incubated for 2 more hours. A23187 (calcium ionophore) was added to each well to reach the final concentration of 10 μM to stimulate RBL-1 cells to release LTC4/cLTs for 15 min. The mediums in the wells were centrifuged at 5000 rpm for 10 min to obtain the supernatant for ELISA assay.
LTC4/cLTs ELISA assay: The supernatants of the cell cultures were diluted into appropriate concentrations before the EIA analysis for LTC4/cLTs. Analysis was performed according to the procedures provided by the manufacturer.

| Compound | increase of the IFN-γ/IL-4 gene expression ratio (Th1/Th2 immune responses) | effect of suppressing LTC4 [1] |
| --- | --- | --- |
| C/C1=C\CC(C)(C)/C=C/C(=O)/C(C)=C/CC1 [Zerumbone, zerumbone] | active ingredient |  |
| COc1c(-c2ccc(O)cc2)oc2cc(O)cc(O)c2c1=O [5,7-dihydroxy-2-(4-hydroxy-phenyl)-3-methoxy-chromen-4-one] |  | active compound |
